# Source: PubChem BioAssay (NCI)
#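 96-well plates; 48 h exposure; 5 concentrations. Endpoints by linear interpolation between flanking doses. Not reached: highest tested concentration assigned. GI50 marks 50% less growth. TGI is the concentration that stops growth completely.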
# Assays:
# Assay in all cases: DTP human tumour cell line panel, 48 h
# 786-0 renal = tested on: 786-0 renal
# A498 renal = tested on: A498 renal
# A549 NSCLC = tested on: A549 NSCLC
# ACHN renal = tested on: ACHN renal
# BT-549 breast = tested on: BT-549 breast
# CAKI-1 renal = tested on: CAKI-1 renal
# CCRF-CEM leukemia = tested on: CCRF-CEM leukemia
# COLO 205 colon = tested on: COLO 205 colon
# DU-145 prostate = tested on: DU-145 prostate
# EKVX NSCLC = tested on: EKVX NSCLC
# HCC-2998 colon = tested on: HCC-2998 colon
# HCT-116 colon = tested on: HCT-116 colon
# HCT-15 colon = tested on: HCT-15 colon
# HL-60(TB) leukemia = tested on: HL-60(TB) leukemia
# HOP-62 NSCLC = tested on: HOP-62 NSCLC
# HOP-92 NSCLC = tested on: HOP-92 NSCLC
# HS 578T breast = tested on: HS 578T breast
# HT29 colon = tested on: HT29 colon
# IGROV1 ovarian = tested on: IGROV1 ovarian
# K-562 leukemia = tested on: K-562 leukemia
# KM12 colon = tested on: KM12 colon
# LOX IMVI melanoma = tested on: LOX IMVI melanoma
# M14 melanoma = tested on: M14 melanoma
# MALME-3M melanoma = tested on: MALME-3M melanoma
# MCF7 breast = tested on: MCF7 breast
# MDA-MB-231 breast = tested on: MDA-MB-231 breast
# MDA-MB-435 = tested on: MDA-MB-435
# MDA-MB-468 breast = tested on: MDA-MB-468 breast
# MOLT-4 leukemia = tested on: MOLT-4 leukemia
# NCI-H226 lung = tested on: NCI-H226 lung
# NCI-H23 lung = tested on: NCI-H23 lung
# NCI-H460 lung = tested on: NCI-H460 lung
# NCI-H522 lung = tested on: NCI-H522 lung
# NCI/ADR-RES ovarian = tested on: NCI/ADR-RES ovarian
# OVCAR-3 ovarian = tested on: OVCAR-3 ovarian
# OVCAR-4 ovarian = tested on: OVCAR-4 ovarian
# OVCAR-5 ovarian = tested on: OVCAR-5 ovarian
# OVCAR-8 ovarian = tested on: OVCAR-8 ovarian
# PC-3 prostate = tested on: PC-3 prostate
# RPMI-8226 leukemia = tested on: RPMI-8226 leukemia
# RXF 393 renal = tested on: RXF 393 renal
# SF-268 CNS = tested on: SF-268 CNS
# SF-295 CNS = tested on: SF-295 CNS
# SF-539 CNS = tested on: SF-539 CNS
# SK-MEL-2 melanoma = tested on: SK-MEL-2 melanoma
# SK-MEL-28 melanoma = tested on: SK-MEL-28 melanoma
# SK-MEL-5 melanoma = tested on: SK-MEL-5 melanoma
# SK-OV-3 ovarian = tested on: SK-OV-3 ovarian
# SN12C renal = tested on: SN12C renal
# SNB-19 CNS = tested on: SNB-19 CNS
# SNB-75 CNS = tested on: SNB-75 CNS
# SR leukemia = tested on: SR leukemia
# SW-620 colon = tested on: SW-620 colon
# T-47D breast = tested on: T-47D breast
# TK-10 renal = tested on: TK-10 renal
# U251 CNS = tested on: U251 CNS
# UACC-257 melanoma = tested on: UACC-257 melanoma
# UACC-62 melanoma = tested on: UACC-62 melanoma
# UO-31 renal = tested on: UO-31 renal
smiles,measurement,setting,value
O=C(N/N=C/c1ccoc1)c1[nH]c2ccc(Br)cc2c1-c1ccccc1,GI50,786-0 renal,0.665 µM
same,TGI,786-0 renal,14.4 µM
same,GI50,A498 renal,15.6 µM
same,TGI,A498 renal,30.2 µM
same,GI50,A549 NSCLC,1.13 µM
same,TGI,A549 NSCLC,14.7 µM
same,GI50,ACHN renal,0.79 µM
same,TGI,ACHN renal,14.4 µM
same,GI50,BT-549 breast,0.416 µM
same,TGI,BT-549 breast,3.12 µM
same,GI50,CAKI-1 renal,0.537 µM
same,TGI,CAKI-1 renal,15.4 µM
same,GI50,CCRF-CEM leukemia,0.227 µM
same,TGI,CCRF-CEM leukemia,15.3 µM
same,GI50,COLO 205 colon,0.43 µM
same,TGI,COLO 205 colon,3.14 µM
same,GI50,DU-145 prostate,0.568 µM
same,TGI,DU-145 prostate,12.4 µM
same,GI50,EKVX NSCLC,1.03 µM
same,TGI,EKVX NSCLC,13.6 µM
same,GI50,HCC-2998 colon,0.755 µM
same,TGI,HCC-2998 colon,11.6 µM
same,GI50,HCT-116 colon,0.166 µM
same,TGI,HCT-116 colon,11.1 µM
same,GI50,HCT-15 colon,0.328 µM
same,TGI,HCT-15 colon,11.9 µM
same,GI50,HL-60(TB) leukemia,0.205 µM
same,TGI,HL-60(TB) leukemia,0.852 µM
same,GI50,HOP-62 NSCLC,0.524 µM
same,TGI,HOP-62 NSCLC,17.6 µM
same,GI50,HOP-92 NSCLC,0.989 µM
same,TGI,HOP-92 NSCLC,13.3 µM
same,GI50,HS 578T breast,0.279 µM
same,TGI,HS 578T breast,13 µM
same,GI50,HT29 colon,0.329 µM
same,TGI,HT29 colon,2.92 µM
same,GI50,IGROV1 ovarian,1.25 µM
same,TGI,IGROV1 ovarian,13 µM
same,GI50,K-562 leukemia,0.197 µM
same,TGI,K-562 leukemia,> 56.2 µM
same,GI50,KM12 colon,0.461 µM
same,TGI,KM12 colon,13.5 µM
same,GI50,LOX IMVI melanoma,0.265 µM
same,TGI,LOX IMVI melanoma,13.7 µM
same,GI50,M14 melanoma,0.226 µM
same,TGI,M14 melanoma,14.7 µM
same,GI50,MALME-3M melanoma,5.25 µM
same,TGI,MALME-3M melanoma,21.4 µM
same,GI50,MCF7 breast,0.21 µM
same,TGI,MCF7 breast,12.7 µM
same,GI50,MDA-MB-231 breast,0.906 µM
same,TGI,MDA-MB-231 breast,12.3 µM
same,GI50,MDA-MB-435,0.162 µM
same,TGI,MDA-MB-435,0.827 µM
same,GI50,MDA-MB-468 breast,0.346 µM
same,TGI,MDA-MB-468 breast,3.88 µM
same,GI50,MOLT-4 leukemia,0.405 µM
same,TGI,MOLT-4 leukemia,21 µM
same,GI50,NCI-H226 lung,3.04 µM
same,TGI,NCI-H226 lung,16.2 µM
same,GI50,NCI-H23 lung,0.728 µM
same,TGI,NCI-H23 lung,14.2 µM
same,GI50,NCI-H460 lung,0.252 µM
same,TGI,NCI-H460 lung,10.7 µM
same,GI50,NCI-H522 lung,0.208 µM
same,TGI,NCI-H522 lung,1 µM
same,GI50,NCI/ADR-RES ovarian,0.231 µM
same,TGI,NCI/ADR-RES ovarian,1.31 µM
same,GI50,OVCAR-3 ovarian,0.257 µM
same,TGI,OVCAR-3 ovarian,11.5 µM
same,GI50,OVCAR-4 ovarian,5.23 µM
same,TGI,OVCAR-4 ovarian,20.9 µM
same,GI50,OVCAR-5 ovarian,0.745 µM
same,TGI,OVCAR-5 ovarian,14.6 µM
same,GI50,OVCAR-8 ovarian,0.369 µM
same,TGI,OVCAR-8 ovarian,5.93 µM
same,GI50,PC-3 prostate,0.436 µM
same,TGI,PC-3 prostate,16 µM
same,GI50,RPMI-8226 leukemia,0.36 µM
same,TGI,RPMI-8226 leukemia,33.2 µM
same,GI50,RXF 393 renal,0.455 µM
same,TGI,RXF 393 renal,19.8 µM
same,GI50,SF-268 CNS,1.2 µM
same,TGI,SF-268 CNS,14.5 µM
same,GI50,SF-295 CNS,0.289 µM
same,TGI,SF-295 CNS,13 µM
same,GI50,SF-539 CNS,0.246 µM
same,TGI,SF-539 CNS,1.08 µM
same,GI50,SK-MEL-2 melanoma,0.954 µM
same,TGI,SK-MEL-2 melanoma,16.4 µM
same,GI50,SK-MEL-28 melanoma,2.75 µM
same,TGI,SK-MEL-28 melanoma,19.9 µM
same,GI50,SK-MEL-5 melanoma,0.295 µM
same,TGI,SK-MEL-5 melanoma,1.67 µM
same,GI50,SK-OV-3 ovarian,3.54 µM
same,TGI,SK-OV-3 ovarian,18.4 µM
same,GI50,SN12C renal,0.485 µM
same,TGI,SN12C renal,12.1 µM
same,GI50,SNB-19 CNS,3.15 µM
same,TGI,SNB-19 CNS,20 µM
same,GI50,SNB-75 CNS,0.299 µM
same,TGI,SNB-75 CNS,13.2 µM
same,GI50,SR leukemia,0.492 µM
same,TGI,SR leukemia,36.9 µM
same,GI50,SW-620 colon,0.297 µM
same,TGI,SW-620 colon,15.6 µM
same,GI50,T-47D breast,3.77 µM
same,TGI,T-47D breast,32.5 µM
same,GI50,TK-10 renal,7.96 µM
same,TGI,TK-10 renal,24 µM
same,GI50,U251 CNS,1.16 µM
same,TGI,U251 CNS,15.6 µM
same,GI50,UACC-257 melanoma,7.66 µM
same,TGI,UACC-257 melanoma,23.3 µM
same,GI50,UACC-62 melanoma,0.355 µM
same,TGI,UACC-62 melanoma,15.8 µM
same,GI50,UO-31 renal,1.01 µM
same,TGI,UO-31 renal,15.2 µM
